Converted amounts (≈) assume the structure as drawn. Read-outs that look alike come from different tables or passages of the source.
What was measured:
Assay type in all cases: cell-based, Propionibacterium acnes
HL053PA1 strain (RT4) = experiment: MIC by broth microdilution method, HL053PA1 strain; details: Cutibacterium acnes, read-out: MIC against acne bacterium strain HL053PA1 strain (RT4)
Description: (§1) An MIC is measured herein according to the broth microdilution method which is the standard method of Japanese Society of Chemotherapy.
(§2) The antibacterial activity of a test substance was determined based on the minimum inhibitory concentration (MIC). An MIC was measured according to the broth microdilution method which is the standard method of Japanese Society of Chemotherapy.
(§3) One-loopful of each acne bacterium strain listed in Table 1 was scraped off and inoculated into 5 mL of a GAM broth slant agar medium (pH 7.0, Nissui Pharmaceutical Co., Ltd.).
The inoculated acne bacterium strain was precultured at 37° C. in a nitrogen atmosphere (anaerobic condition) for 48 hours. The precultured microbial cells were diluted in a modified GAM broth liquid medium (pH 6.0) to a concentration of 5.0×10^4 cfu/mL (viable cell count per OD660=1 is 2.0×10^9 cfu/mL), to prepare strain suspensions.
(§4) Each fatty acid (Tokyo Chemical Industry Co., Ltd.) listed in Table 2 was dissolved in dimethylsulfoxide (DMSO) as a solvent such that the concentration became 10,000 μg/mL, and used as a test substance.
(§5) Each of strain suspensions (5.0×10^4 cfu/mL) was aliquoted in a 96-well round bottom microplate, each of the test substance (fatty acid concentration 10,000 μg/mL) was added at a 1/10 volume to the aliquot and mixed to prepare measurement samples (fatty acid concentration: 1,000 μg/mL). Measurement samples in 2-fold dilution series were prepared using the strain suspension (fatty acid concentration from 0.48 to 1,000 μg/mL).
[…] The presence or absence of a precipitation of test microbial cells after the incubation was examined and the minimum concentration at which the precipitation of microbial cells […] was regarded as the MIC (μg/mL) of the test substance against the acne bacterium strain.

HL043PA1 strain (RT5) = experiment: MIC by broth microdilution method, HL043PA1 strain; details: Cutibacterium acnes, read-out: MIC against acne bacterium strain HL043PA1 strain (RT5)
Description: as §1, §2, §3
The inoculated acne bacterium strain was precultured at 37° C. in a nitrogen atmosphere (anaerobic condition) for 48 hours. […]
as §4, §5
The measurement samples were incubated under an anaerobic condition at 37° C. for 2 days. The presence or absence of a precipitation of test microbial cells after the incubation was examined and the minimum concentration at which the precipitation of microbial cells […] was regarded as the MIC (μg/mL) of the test substance against the acne bacterium strain.

[1] = tested on: HL053PA1 strain (RT4) and HL043PA1 strain (RT5) versus HL110PA3 strain (RT6); experiment: Strain-selective antibacterial activity (average of MICRT6/MICRT4 and MICRT6/MICRT5)
From the text: Herein, “acne strain-selective antibacterial activity” or “strain-selective antibacterial activity” means an index indicating better inhibition of growth of a dominant strain in acne patients compared to that of a dominant strain in healthy subjects. It is expressed by the average value of the values (MICRT6/MICRT4, and MICRT6/MICRTS) obtained by dividing the minimum inhibitory concentration (MIC) of an object substance with respect to the dominant strain in healthy subjects (RT6 strain) (MICRT6) respectively by the MIC of the object substance with respect to the dominant strain in acne patients (RT4 strain) (MICRT4), and by the MIC of the object substance with respect to the dominant strain in acne patients (RT5 strain) (MICRT5).
The strain-selective antibacterial activity of each test substance (Table 2, right-most column) was evaluated based on the following rating criteria (Table 3). When the strain-selective antibacterial activity is indicated by a numerical range, the rating was based on the minimum value thereof.

HL110PA3 strain (RT6) = experiment: MIC by broth microdilution method, HL110PA3 strain; details: Cutibacterium acnes, read-out: MIC against acne bacterium strain HL110PA3 strain (RT6)
[2] = control antibiotics, Comparative Example 2, method as Example 1
[3] = control antibiotics, Comparative Example 2, for LOD calculated using 0.48 ng/mL as MIC of the RT6 strain
[4] = control antibiotics, Comparative Example 2, method as Example 1, LOD = MIC <0.48 ng/mL
[5] = control antibacterial agents, Comparative Example 1, method as Example 1
[6] = control antibacterial agents, Comparative Example 1

Row | MIC (HL053PA1 strain (RT4); [2]) | MIC (HL043PA1 strain (RT5); [2]) | MIC (HL110PA3 strain (RT6); [4]) | Structure (SMILES) | Strain-selective antibacterial activity [1, 3] | MIC (HL053PA1 strain (RT4); [5]) | MIC (HL043PA1 strain (RT5); [5]) | Strain-selective antibacterial activity [1, 6] | MIC (HL110PA3 strain (RT6); [5])
1 | 0.24 µg/mL (≈ 0.525 µM) | 0.49 µg/mL (≈ 1.07 µM) | < 0.00048 µg/mL | CN(C)c1ccc(O)c2c1C[C@H]1C[C@H]3[C@H](N(C)C)C(O)=C(C(N)=O)C(=O)[C@@]3(O)C(O)=C1C2=O [Minocycline, reference compound] | <1.5 × 10^−3 | – | – | – | –
2 | – | – | – | CCO [Ethanol, reference compound] | – | > 1000 µg/mL | 500 µg/mL (≈ 10900 µM) | <0.75 | 500 µg/mL (≈ 10900 µM)
3 | 0.031 µg/mL (≈ 0.086 µM) | 0.031 µg/mL (≈ 0.086 µM) | < 0.00048 µg/mL | CC1CCc2c(N3CCC(O)CC3)c(F)cc3c(=O)c(C(=O)O)cn1c23 (stereo not shown) [Nadifloxacin, reference compound] | <1.5 × 10^−2 | – | – | – | –
4 | – | – | – | CC(C)c1cccc(=O)c(O)c1 [Hinokitiol, reference compound] | – | 31.3 µg/mL (≈ 191 µM) | 31.3 µg/mL (≈ 191 µM) | 1.0 | 31.3 µg/mL (≈ 191 µM)

— US20190247353A1, “ACNE STRAIN-SELECTIVE ANTIBACTERIAL AGENT” (MOMOTANI JUNTENKAN CO., LTD., priority 2016, published 2019)
